Earlier results, collected in US20190214145A1, “Method and systems for creating and screening patient metabolite profile to diagnose current medical condition, diagnose current treatment state and recommend new treatment regimen” (priority 2018, published 2019).

Test system: not given
Settings: intravenous, amount equivalent to one cannabis cigarette

Question: Which results are given for `CCCCCc1cc(O)c2c(c1)OC(C)(C)[C@@H]1CCC(C)=C[C@@H]21` [Δ9THC]?
Answer: Heart rate: significantly increases; Phosphoenolpyruvate (PEP): decreases; Systolic or diastolic arterial pressure: without any change

Test system: not given
Settings: vaporizing temperature

Question: Which BP does the source give for `CCCCCc1cc2c(c(O)c1C(=O)O)C=CC(C)(CCC=C(C)C)O2` (centres unmarked) [CBCA] here?
Answer: 145 °C

Question: For `CCCCCc1cc(O)c2c(c1)OC(C)(C)[C@@H]1CCC(C)=C[C@@H]21` [Δ9THC], which BP is on record?
Answer: 157 °C

Question: Which BP does the source give for `Cc1ccc(C(C)C)cc1` [P-cymene] here?
Answer: 177 °C

Question: With `C=C(C)[C@@H]1CCC(C)=C[C@H]1c1c(O)cc(CCCCC)cc1O` [CBD, reference compound] as the molecule, how does the BP read?
Answer: 180 °C

Question: With `CC1=CCC(O)(C(C)C)CC1` (centres unmarked) [Terpinol-4-ol] as the molecule, how does the BP read?
Answer: 209 °C

Question: For `C=CC(C)(O)CCC=C(C)C` (centres unmarked) [Linalool], which BP is on record?
Answer: 198 °C

Question: Which BP does the source give for `CC1=CC[C@@H](C(C)(C)O)CC1` [α-terpinol] here?
Answer: 156 °C

Question: Which BP does the source give for `CCCCCc1cc(O)c2c(c1)OC(C)(CCC=C(C)C)C=C2` (centres unmarked) [CBC] here?
Answer: 220 °C

Question: Which BP does the source give for `CC(C)=C1CC[C@@H](C)CC1=O` [Pulegone] here?
Answer: 224 °C

Question: For `C=CC(=C)CCC=C(C)C` [β-myrcene], which BP is on record?
Answer: 167 °C

Question: For `CC[C@H](CC[C@@H](C)[C@H]1CC[C@H]2[C@@H]3CC=C4C[C@@H](O)CC[C@]4(C)[C@H]3CC[C@]12C)C(C)C` [β-sitosterol], which BP is on record?
Answer: 134 °C

Question: Which BP does the source give for `CC1(C)C2CCC1(C)C(O)C2` (centres unmarked) [Borneol] here?
Answer: 210 °C

Question: Which BP does the source give for `COc1cc(-c2cc(=O)c3c(O)c(C/C=C(\C)CCC=C(C)C)c(O)cc3o2)ccc1O` [Cannflavin A] here?
Answer: 182 °C

Question: Which BP does the source give for `CC1=CCC2C(C1)C2(C)C` (centres unmarked) [Δ-3-carene] here?
Answer: 168 °C

Question: For `O=c1cc(-c2ccc(O)cc2)oc2cc(O)cc(O)c12` [Apigenin], which BP is on record?
Answer: 178 °C

Question: Which BP does the source give for `CC12CCC(CC1)C(C)(C)O2` [1,8-cineole] here?
Answer: 176 °C

Question: For `C=C(C)[C@H]1CC=C(C)CC1` [D-limonene], which BP is on record?
Answer: 177 °C

Question: With `C=C(C)[C@@H]1CCC(C)=C[C@H]1c1c(O)cc(CCCCC)c(C(=O)O)c1O` [CBDA] as the molecule, how does the BP read?
Answer: 120 °C

Question: Which BP does the source give for `CC1=CCC(C(C)(C)O)CC1` (stereo not drawn) [α-terpineol] here?
Answer: 217 °C

Question: For `C=C1CC/C=C(\C)CC[C@@H]2[C@@H]1CC2(C)C` [β-caryophyllene], which BP is on record?
Answer: 199 °C

Question: With `CCCCCc1cc2c(c(O)c1C(=O)O)[C@@H]1C=C(C)CC[C@H]1C(C)(C)O2` [Δ9THCA] as the molecule, how does the BP read?
Answer: 104 °C

Test system: not given
Settings: upon inhalation, even in low concentrations

Question: Which Sedation does the source give for `CC(C)=CCCC(C)CCO` (centres unmarked) [Citronellol] here?
Answer: deeply sedating

Question: For `CC1=CCC(C(C)(C)O)CC1` (stereo not drawn) [α-terpineol], which Sedation is on record?
Answer: deeply sedating

Test system: submandibular gland
Settings: rats, saliva from ducts of the submandibular gland

Question: What does the source list for `CCCCC/C=C\C/C=C\C/C=C\C/C=C\CCCC(=O)N[C@H](C)CO` [(R)-(+)-methanandamide]?
Answer: Ca 2+ concentration of saliva: increase; Other electrolytes of saliva: no changes; Saliva flow rate: significant decrease; Total protein content of saliva: increase

Question: What does the source list for `CCCn1c(C)c(C(=O)c2cccc3ccccc23)c2ccccc21` [JWH015]?
Answer: Ca 2+ concentration of saliva: increase; Other electrolytes of saliva: no changes; Saliva flow rate: significant decrease; Total protein content of saliva: increase

Question: Which results are given for `Cc1c(C(=O)c2cccc3ccccc23)c2cccc3c2n1[C@H](CN1CCOCC1)CO3` [WIN55212-2T]?
Answer: Ca 2+ concentration of saliva: increase; Other electrolytes of saliva: no changes; Saliva flow rate: significant decrease; Total protein content of saliva: increase
